SMILES strings stand for the structures. Where two headings read alike, the source gives them in different places.

Assay type in all cases: in vivo
In experiment [1] the test system is IPOHE: ivyleaf morningglory (Ipomoea hederecea). The experiment is described as follows: Pre-emergent Test I herbicidal activity. The conditions noted are these: pre-emergence, 336 h, read-out: Visual Growth Reduction (%) 14 Days After Application, IPOHE; for pest or weed control at 3960 g/ha: 3.96 kg ai/ha. The essentials:
(§1)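 Pre-emergence soil application: formulated compound was pipetted over the surface of sandy loam pots planted with seed, then watered in. Plants grew in a greenhouse at about 23-29° C (day) and 22-28° C (night). Injury was scored 14 days later from 0 (no effect) to 100 (death or no emergence).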

Experiment [2] has as its system HELAN: sunflower (Helianthus annuus). The experiment is described as follows: Pre-emergent Test I herbicidal activity. The note with it: pre-emergence, 336 h, read-out: Visual Growth Reduction (%) 14 Days After Application, HELAN; for pest or weed control at 3960 g/ha: 3.96 kg ai/ha. The essentials:
as §1

In experiment [3] the test system is ECHCG: barnyardgrass (Echinochloa crus-galli). The experiment is described as follows: Pre-emergent Test I herbicidal activity. The note with it: pre-emergence, 336 h, read-out: Visual Growth Reduction (%) 14 Days After Application, ECHCG; for pest or weed control at 3960 g/ha: 3.96 kg ai/ha. The essentials:
as §1

The test system of experiment [4] is SETFA: giant foxtail (Setaria faberi). The experiment is described as follows: Pre-emergent Test I herbicidal activity. The conditions noted are these: pre-emergence, 336 h, read-out: Visual Growth Reduction (%) 14 Days After Application, SETFA; for pest or weed control at 3960 g/ha: 3.96 kg ai/ha. The essentials:
as §1

Experiment [5] has as its system AMARE: redroot pigwseed (Amaranthus retroflexus). Put plainly: Pre-emergent Test I herbicidal activity. The conditions noted are these: pre-emergence, 336 h, read-out: Visual Growth Reduction (%) 14 Days After Application, AMARE; for pest or weed control at 3960 g/ha: 3.96 kg ai/ha. The essentials:
as §1

In experiment [6] the test system is AVEFA: wild oats (Avena fatua). The experiment is described as follows: Pre-emergent Test I herbicidal activity. The conditions noted are these: pre-emergence, 336 h, read-out: Visual Growth Reduction (%) 14 Days After Application, AVEFA; for pest or weed control at 3960 g/ha: 3.96 kg ai/ha. The essentials: as §1
Experiment [7] has as its system VERPE: bird's-eye speedwell (veronica persica). Put plainly: Post-emergent Test III, herbicidal activity in wheat and barley. The conditions noted are these: for pest or weed control at 35 g/ha / pest or weed control at 70 g/ha / pest or weed control at 140 g/ha: Veronica persica, post-emergence, 504 h, read-out: Visual Growth Reduction (%) 21 Days After Application VERPE; for pest or weed control at 35 g/ha: 35 g ai/ha; for pest or weed control at 70 g/ha: 70 g ai/ha; for pest or weed control at 140 g/ha: 140 g ai/ha; for GR50 VERPE / GR80 VERPE: probit analysis. The essentials:
(§2)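 GR20, GR50, GR80 and GR90 come from probit analysis of visual injury scores (0 = none, 100 = complete kill) taken 21 d after treatment. Foliar application was by track sprayer delivering 187 L/ha at five rates, from high down to 1/16×, onto greenhouse plants at the 2–3 leaf stage, with solvent-blank controls.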

A further experiment relates to LAMSS. Described as above. The conditions noted are these: for pest or weed control at 35 g/ha / pest or weed control at 70 g/ha / pest or weed control at 140 g/ha: post-emergence, 504 h, read-out: Visual Growth Reduction (%) 21 Days After Application LAMSS; for pest or weed control at 35 g/ha: 35 g ai/ha; for pest or weed control at 70 g/ha: 70 g ai/ha; for pest or weed control at 140 g/ha: 140 g ai/ha; for GR50 LAMSS / GR80 LAMSS: probit analysis. The essentials:
as §2

Experiment [8] deals with BROTE: downy brome (Bromus tectorum). The experiment is described as above. The note with it: for pest or weed control at 35 g/ha / pest or weed control at 70 g/ha / pest or weed control at 140 g/ha: Bromus tectorum, post-emergence, 504 h, read-out: Visual Growth Reduction (%) 21 Days After Application BROTE; for pest or weed control at 35 g/ha: 35 g ai/ha; for pest or weed control at 70 g/ha: 70 g ai/ha; for pest or weed control at 140 g/ha: 140 g ai/ha; for GR50 BROTE / GR80 BROTE: probit analysis, 21 days after application; for GR50 BROTE: dose for growth reduction of 50 percent; for GR80 BROTE: dose for growth reduction of 80 percent. The essentials: as §2

The mark [9] stands for this setting: dose for growth reduction of 50 percent, 21 days after application.
Where [10] appears, read: dose for growth reduction of 80 percent, 21 days after application.
Setting [11] is: Table 8, dose for 50 percent growth reduction, 21 d.
[12] abbreviates: Table 8, dose for 80 percent growth reduction, 21 d.

Consider `Nc1c(F)c(-c2ccc(I)cc2)nc(C(=O)O)c1Cl` [Compound 45, 4-amino-3-chloro-5-fluoro-6-(4-iodophenyl)picolinic acid], for which the pest or weed control at 3960 g/ha in experiment [1], in [2], in [3], in experiment [4], in [5] and in experiment [6] was 95 to 100% each time. For the same compound, the results for the pest or weed control at 35 g/ha (in [7]; with LAMSS; in experiment [8]) were 75 to 84%, 85 to 94% and 85 to 94%, respectively. Further, the pest or weed control at 70 g/ha in experiment [7] lay within 85 to 94%; in the experiment with LAMSS, 95 to 100%; in experiment [8] it was 85 to 94%. Further, the pest or weed control at 140 g/ha fell in the range of 85 to 94% in experiment [7], 95 to 100% with LAMSS and 95 to 100% in [8]. Further, the “GR50 VERPE” value in experiment [7] (setting [9]) worked out at 7 g ai/ha. For the same compound, in experiment [7] (setting [10]), the “GR80 VERPE” value is recorded as 30 g ai/ha. The “GR50 LAMSS” value with LAMSS (setting [9]) worked out at 1 g ai/ha. Further, the “GR80 LAMSS” value with LAMSS (setting [10]) stood at 6 g ai/ha. Moreover, the “GR50 BROTE” value in experiment [8] is on record as 13 g ai/ha. Further, the “GR80 BROTE” value in experiment [8] amounted to 36 g ai/ha.

Turning to `COC(=O)c1nc(-c2ccc(Br)c(F)c2F)cc(N)c1Cl` [Compound 114, methyl 4-amino-6-(4-bromo-2,3-difluorophenyl)-3-chloropicolinate], the pest or weed control at 3920 g/ha in experiment [1] (3.92 kg ai/ha) was 95 to 100%; in experiment [2] (3.92 kg ai/ha), 95 to 100%; in [3] (3.92 kg ai/ha) it was 75 to 84%; in experiment [4] (3.92 kg ai/ha) it was 85 to 94%; in experiment [5] (3.92 kg ai/ha) it was 95 to 100%; in [6] (3.92 kg ai/ha), 95 to 100%. In addition, the pest or weed control at 35 g/ha in [7] lay within 30 to 44%; in the experiment on LAMSS, 85 to 94%; in experiment [8], 0 to 29%. For the same compound, the pest or weed control at 70 g/ha was 30 to 44% in [7], 85 to 94% in the experiment with LAMSS and 0 to 29% in [8]. In addition, the pest or weed control at 140 g/ha fell in the range of 30 to 44% in experiment [7], 95 to 100% in the experiment with LAMSS and 0 to 29% in [8]. In addition, in experiment [7] (setting [9]), the “GR50 VERPE” value is listed as over 140 g ai/ha. Also, in experiment [7] (setting [10]), the “GR80 VERPE” value is over 140 g ai/ha. For the same compound, in the experiment with LAMSS (setting [9]), the “GR50 LAMSS” value stood at 1 g ai/ha. For the same compound, in the experiment with LAMSS (setting [10]), the “GR80 LAMSS” value is listed as 4 g ai/ha. For the same compound, in [8], the “GR50 BROTE” value is recorded as over 140 g ai/ha. Further, in experiment [8], the “GR80 BROTE” value was over 140 g ai/ha.

With `COC(=O)c1nc(-c2ccc(C#N)c(F)c2)c(F)c(N)c1Cl` [Compound 135, methyl 4-amino-3-chloro-6-(4-cyano-3-fluorophenyl)-5-fluoropicolinate], the pest or weed control at 4040 g/ha in experiment [1] (4.04 kg ai/ha) lay within 95 to 100%; in [2] (4.04 kg ai/ha) it was 95 to 100%; in [3] (4.04 kg ai/ha) it was 30 to 44%; in [4] (4.04 kg ai/ha), 30 to 44%; in [5] (4.04 kg ai/ha), 95 to 100%; in experiment [6] (4.04 kg ai/ha), 30 to 44%. Further, in [7] (setting [11]), the “GR50 VERPE” value turned out to be 24 g ai/ha. In experiment [7] (setting [12]), the “GR80 VERPE” value was 78 g ai/ha. In addition, the pest or weed control at 35 g/ha in [7] (Table 8, post-emergent, 21 d) lay in the range of 60 to 74%; in the experiment with LAMSS (Table 8, post-emergent, 21 d), 75 to 84%. Also, the pest or weed control at 70 g/ha in experiment [7] (Table 8, post-emergent, 21 d) is 75 to 84%; in the experiment with LAMSS (Table 8, post-emergent, 21 d), 85 to 94%. The pest or weed control at 140 g/ha was 85 to 94% in experiment [7] (Table 8, post-emergent, 21 d) and 85 to 94% in the experiment on LAMSS (Table 8, post-emergent, 21 d). Besides, the “GR50 LAMSS” value in the experiment on LAMSS (setting [11]) stood at 1 g ai/ha. Besides, in the experiment with LAMSS (setting [12]), the “GR80 LAMSS” value came to 19 g ai/ha.

`COC(=O)c1nc(-c2ccc(C(F)F)cc2)c(F)c(N)c1Cl` [Compound 209]: the pest or weed control at 4000 g/ha in [1] (4 kg ai/ha), in experiment [2] (4 kg ai/ha), in experiment [3] (4 kg ai/ha), in experiment [4] (4 kg ai/ha), in experiment [5] (4 kg ai/ha) and in [6] (4 kg ai/ha) was 95 to 100% throughout. Also, the pest or weed control at 35 g/ha in the experiment on LAMSS was in the range of 85 to 94%; in [8], 0 to 29%. For the same compound, the pest or weed control at 70 g/ha was in the range of 85 to 94% in the experiment with LAMSS and 30 to 44% in experiment [8]. The “GR50 LAMSS” value in the experiment with LAMSS (setting [9]) is recorded as 7 g ai/ha. The “GR80 LAMSS” value with LAMSS (setting [10]) was 29 g ai/ha. The “GR50 BROTE” value in [8] is given as 88 g ai/ha. Also, the “GR80 BROTE” value in experiment [8] is over 140 g ai/ha.

On to `C=Cc1c(C(=O)OC)nc(-c2ccc(Cl)c(F)c2)c(F)c1N` [Compound 215, methyl 4-amino-6-(4-chloro-3-fluorophenyl)-5-fluoro-3-vinylpicolinate], for which the pest or weed control at 3960 g/ha in [1] lay within 95 to 100%; in [2], 95 to 100%; in experiment [3], 95 to 100%; in experiment [4], 85 to 94%; in [5], 95 to 100%; in [6], 85 to 94%.

Source of the values: patent US9113629B2, “4-amino-6-(4-substituted-phenyl)-picolinates and 6-amino-2-(4-substituted-phenyl)-pyrimidine-4-carboxylates and their use as herbicides” (DOW AGROSCIENCES LLC, priority 2013, dated 2015).
